Measured values as given in patent publication US20230204572A1, “Engineered Biosensors in an Encapsulated and Deployable System (EBEADS) for Environmental Chemical Detection” (priority 2021, published 2023).

Key:
[1] = tested on: mutant HbpR protein P6-A-8; conditions: 50 μM PCB-1 vs 50 μM 2-PP
Excerpt: (§1) To generate biosensor systems that detect additional analytes, HbpR mutants were generated using a HbpR codon optimized library sequence (SEQ ID NO: 4) and a plasmid containing the same (SEQ ID NO: 8) and selection against different analytes.

[2] = tested on: mutant HbpR protein P6-F-8; conditions: 50 μM PCB-1 vs 50 μM 2-PP
Excerpt: as §1

[3] = tested on: mutant HbpR protein P6-B-9; conditions: 50 μM PCB-1 vs 50 μM 2-PP
Excerpt: as §1

[4] = tested on: mutant HbpR protein P4-A-8; conditions: 50 μM PCB-3 vs 50 μM 2-HBP
Excerpt: as §1

HbpR [5] = assay: Sensor induction in hydrogel microbeads (eBEADS, amplification circuit strain, AmilCP); format: cell-based, Pseudomonas azelaica
Protocol: The encapsulated sensing strain's ability to detect low concentrations of 2-PP and produce a visible output signal were evaluated by time series of microscope images. Briefly, the positive control strain and 2-PP with amplification circuit strain were encapsulated in the PAA formulation as previously described above. The microbeads were placed on LB agar plates containing 0.2 mM IPTG, 100 μg/mL carbenicillin, and 50 μg/mL kanamycin supplemented with 0, 1 or 10 μM 2-phenylphenol and incubated at 30° C. Images of the sensing strain microbeads were taken at time points 0, 6, 12, 24, and 48 hours with a Nikon SMZ25 stereoscope.

HbpR [6] = assay: AmilCP visual reporter of sensing strains on agar plates and in liquid culture; format: cell-based, Pseudomonas azelaica
Protocol: Strains containing AmilCP reporters were incubated overnight to saturation at 30° C. with shaking. Three μl of culture were pipetted onto 6 cm LB-agar plates containing 0.2 mM IPTG, 100 μg/mL carbenicillin, 50 μg/mL kanamycin, and 0 μM, 1 μM, or 10 μM of 2-phenylphenol. Images of the plates were taken at time points 0, 6, 12, 24, and 48 hours with a Nikon SMZ25 stereoscope.
After 12-24 hours on agar plates containing 10 μM 2-phenylphenol, the strains with amplification circuit produced enough AmilCP purple reporter to become just barely visible.
While the response time for the AmilCP reporter was slower than the 2 hour response time observed with the β-galactosidase reporter, use of the AmilCP reporter allowed for reporter visualization without additional equipment. When absorbance at 588 nm was used, addition of the amplification circuit in the AmilCP system allowed for detection of 2-PP at concentrations as low as 1 μM (FIG. 4B). The increase in reporter production through genetic amplification made it feasible for the living sensor to maintain a robust, visual reporter output when encapsulated.

aquatic organisms = conditions: EPA reregistration decision; cited from earlier work
HbpR [7] = assay: β-galactosidase (lacZ) reporter activity of sensing strain pBL_IMP_11 without amplification circuit in liquid culture; format: cell-based, Pseudomonas azelaica
Protocol: Cultures were grown overnight to saturation and then diluted to an OD600 of 0.2. Cultures were incubated at 30° C. with shaking until an OD600 of 0.7-1 before inducing cultures with 2-phenylphenol dissolved in 100% ethanol. Cultures were incubate for 3 hours or 1 mL samples were taken every hour. For experiments where 2-PP was removed after incubating for 3 hours, cultures were divided in two tubes and centrifuged. One half of the cultures were washed with 1×PBS to remove 2-phenylphenol and resuspended in fresh medium with antibiotics and without 2-phenylphenol. The other half was resuspended in their original medium without washing. Aliquots were taken every hour. […] Statistical significance of results was determined using a Student's two-tailed t-test. The limit of detection (LOD) was calculated using GraphPad Prism software and is defined as the blank plus three times the standard deviation of the blank.
In the bacterial sensor cells when exposed to 2-PP, the HbpR promoter is activated by 2-PP and HbpR protein is expressed from the transfected plasmids. […] The Limit of Detection (LOD) was calculated to be 0.863 μM for this sensor strain (FIG. 1i). […]
In order to test the response of the reporter over time, the sensor strains were treated with various amounts of 2-PP and reporter activity was measured every hour for five hours. […]

[8] = agar plates, 1 μM and 10 μM 2-phenylphenol

## Clc1ccccc1-c1ccccc1 [PCB-1, polychlorinated biphenyl-1]
[1]
  lacZ reporter expression, mutant P6-A-8: selective lacZ reporter expression
[2]
  lacZ reporter expression, mutant P6-F-8: selective lacZ reporter expression
[3]
  lacZ reporter expression, mutant P6-B-9: selective lacZ reporter expression

## Clc1ccc(-c2ccccc2)cc1 [PCB-3, polychlorinated biphenyl-3]
[4]
  lacZ reporter expression, mutant P4-A-8: selective lacZ reporter expression

## Oc1ccccc1-c1ccccc1 [2-PP, 2-phenylphenol]
HbpR [5]; 10 μM 2-PP, 30° C.
  time to purple color response of encapsulated strain: ≤ 24 h
HbpR [5]; after 48 hours, less than 10 μM 2PP
  response of eBEADS at less than 10 μM: no response
HbpR [6]; absorbance at 588 nm, with amplification circuit, 24 hours
  lowest 2-PP concentration detected with AmilCP: ≥ 1 µM
HbpR [6]; [8]
  AmilCP colour after 48 hours, with amplification circuit: vibrant purple color
  AmilCP colour after 48 hours, without amplification circuit: faintly visible
HbpR [6]; agar plates, 10 μM 2-phenylphenol, with amplification circuit
  time until AmilCP purple reporter just barely visible: 12 to 24 h
Aquatic organisms
  LC50 for some aquatic organisms: ≥ 0.32 µg/mL
HbpR [7]; lacZ reporter, no amplification, three hours, blank plus three SD
  Limit of Detection (LOD): 0.863 µM
HbpR [7]; β-galactosidase reporter
  response time of β-galactosidase reporter: 2 h
